Measurements reported in ChEMBL document CHEMBL1201862, “PubChem BioAssay data set” (2004).
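A five-concentration, 48-hour dose response in 96-well plates underlies each endpoint, interpolated linearly between surrounding concentrations. At the GI50, growth is halved.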 Activity calls are given as the source filed them. Cut-off read from the data, not from the text of the source: active = GI50 up to about 1.1 µM and inactive = higher.

What was measured:
Test in all cases: inhibition of tumour cell growth, NCI panel, 48 h
KM12 = test system: KM12
SR = test system: SR
RXF 393 = test system: RXF 393
MDA-N = test system: MDA-N
SF-268 = test system: SF-268
SK-OV-3 = test system: SK-OV-3
HT-29 = test system: HT-29
DU-145 = test system: DU-145
NCI-H226 = test system: NCI-H226
SK-MEL-5 = test system: SK-MEL-5
COLO 205 = test system: COLO 205
U-251 = test system: U-251
SF-295 = test system: SF-295
MCF7 = test system: MCF7
SW-620 = test system: SW-620
SK-MEL-2 = test system: SK-MEL-2
EKVX = test system: EKVX
BT-549 = test system: BT-549
OVCAR-3 = test system: OVCAR-3
SF-539 = test system: SF-539

Measured: GI50

C1CSCC2(COC2)CS1
inactive: KM12 > 100 µM | SR > 100 µM | RXF 393 > 100 µM | MDA-N > 100 µM | SF-268 > 100 µM | SK-OV-3 > 100 µM | HT-29 > 100 µM | DU-145 > 100 µM | NCI-H226 > 100 µM | SK-MEL-5 > 100 µM | COLO 205 > 100 µM | U-251 > 100 µM | SF-295 > 100 µM | MCF7 > 100 µM | SW-620 > 100 µM

CC(C)(CC1(C)NC(=O)NC1=O)OCc1ccccc1 (stereo not drawn)
inactive: KM12 > 100 µM | SK-MEL-2 > 100 µM | SR > 100 µM | RXF 393 > 100 µM | SF-268 > 100 µM | SK-OV-3 > 100 µM | EKVX > 100 µM | BT-549 > 100 µM | HT-29 > 100 µM | OVCAR-3 > 100 µM | DU-145 > 100 µM | SK-MEL-5 > 100 µM | U-251 > 100 µM | SF-295 > 100 µM | MCF7 > 100 µM | SW-620 > 100 µM

Nc1nc(Cl)c2ncn(Cc3ccc(CCl)cc3)c2n1
inactive: KM12 8.07 µM | SK-MEL-2 11.5 µM | SR 3.02 µM | RXF 393 1.3 µM | SF-268 1.88 µM | SK-OV-3 15.1 µM | EKVX 2.58 µM | BT-549 6.84 µM | HT-29 9.73 µM | OVCAR-3 2.16 µM | DU-145 6.59 µM | NCI-H226 10.4 µM | SK-MEL-5 15.3 µM | COLO 205 3.64 µM | SF-539 3.13 µM | U-251 3.56 µM | SF-295 10.8 µM | MCF7 2.81 µM | SW-620 3.37 µM

O=c1n(-c2ccccc2)c(=O)n2n1C1C=CC2CCCCCC1
inactive: KM12 > 100 µM | SK-MEL-2 > 100 µM | SR > 100 µM | SF-268 > 100 µM | SK-OV-3 > 100 µM | EKVX > 100 µM | BT-549 97.3 µM | HT-29 > 100 µM | OVCAR-3 4.99 µM | DU-145 > 100 µM | NCI-H226 > 100 µM | SK-MEL-5 > 100 µM | COLO 205 > 100 µM | SF-539 > 100 µM | U-251 > 100 µM | SF-295 > 100 µM | MCF7 > 100 µM | SW-620 > 100 µM

Nc1c(C(=O)c2ccccc2)nnc2ccccc12
inactive: KM12 20.4 µM | SK-MEL-2 17.4 µM | SR 38.4 µM | SF-268 35.6 µM | EKVX 22.6 µM | BT-549 18.7 µM | HT-29 25.8 µM | DU-145 23.4 µM | NCI-H226 30.4 µM | SK-MEL-5 16.7 µM | COLO 205 18.5 µM | SF-539 27.4 µM | U-251 34.5 µM | MCF7 20.4 µM | SW-620 41.2 µM

CCOC(=O)c1c(SCc2ccccc2)nc2c3ccccc3ccn12
inactive: KM12 > 100 µM | SK-MEL-2 > 100 µM | SR 47 µM | RXF 393 70.6 µM | MDA-N > 100 µM | SF-268 94 µM | SK-OV-3 52.7 µM | EKVX > 100 µM | HT-29 > 100 µM | DU-145 > 100 µM | NCI-H226 33.7 µM | SK-MEL-5 > 100 µM | COLO 205 > 100 µM | SF-539 79.4 µM | U-251 57.7 µM | SF-295 40.7 µM | MCF7 > 100 µM | SW-620 > 100 µM

CN1N=C(c2ccncc2)OC1c1ccc(C(F)(F)F)cc1 (stereo not drawn)
inactive: KM12 > 100 µM | SK-MEL-2 > 100 µM | RXF 393 > 100 µM | MDA-N > 100 µM | SF-268 > 100 µM | SK-OV-3 > 100 µM | EKVX 44.6 µM | HT-29 > 100 µM | OVCAR-3 > 100 µM | DU-145 > 100 µM | NCI-H226 39.1 µM | SK-MEL-5 > 100 µM | COLO 205 > 100 µM | SF-539 > 100 µM | U-251 91 µM | SF-295 > 100 µM | MCF7 > 100 µM | SW-620 > 100 µM

CSc1ccc(-c2cc(-c3nc4ccccc4[nH]3)nc3[nH]c(-c4nc5ccccc5[nH]4)cc(=O)c23)cc1
inactive: KM12 60.3 µM | SK-MEL-2 > 100 µM | SR > 100 µM | RXF 393 52.5 µM | SF-268 49.2 µM | SK-OV-3 > 100 µM | EKVX 27.1 µM | BT-549 85.3 µM | HT-29 68.5 µM | OVCAR-3 > 100 µM | DU-145 > 100 µM | NCI-H226 84.5 µM | COLO 205 37.8 µM | SF-539 > 100 µM | U-251 93.8 µM | SF-295 86.1 µM | MCF7 34 µM

CCN(CC)c1ccc(C2SCC(=O)N2c2ccc(NC(=O)c3ccc(N4C(=O)CSC4c4ccc(N(CC)CC)cc4)cc3)cc2)cc1 (stereo not drawn)
inactive: KM12 96.8 µM | SK-MEL-2 > 100 µM | RXF 393 > 100 µM | SF-268 > 100 µM | SK-OV-3 > 100 µM | EKVX > 100 µM | BT-549 > 100 µM | HT-29 75 µM | OVCAR-3 71.4 µM | DU-145 > 100 µM | SK-MEL-5 > 100 µM | COLO 205 > 100 µM | SF-539 > 100 µM | U-251 > 100 µM | SF-295 30.1 µM | MCF7 79.4 µM | SW-620 > 100 µM

C=C1C(O)CC[C@]2(C)C1C1OC(C)(C)O[C@]13CC(=O)C(C)=C([C@H]1OC(C)(C)OC12)C3(C)C (stereo partly drawn)
inactive: KM12 > 100 µM | SR > 100 µM | RXF 393 27.4 µM | SF-268 > 100 µM | SK-OV-3 > 100 µM | EKVX > 100 µM | BT-549 > 100 µM | HT-29 > 100 µM | OVCAR-3 > 100 µM | DU-145 > 100 µM | NCI-H226 > 100 µM | SK-MEL-5 > 100 µM | COLO 205 > 100 µM | SF-539 > 100 µM | U-251 > 100 µM | SF-295 > 100 µM | MCF7 65.8 µM | SW-620 > 100 µM

Oc1cc(-c2ccc(F)cc2)nc2ncccc12
inactive: KM12 31.9 µM | SK-MEL-2 33.5 µM | SF-268 62.1 µM | SK-OV-3 30.3 µM | EKVX 39.4 µM | BT-549 > 100 µM | HT-29 42.7 µM | DU-145 74.6 µM | NCI-H226 24.3 µM | COLO 205 20.2 µM | SF-539 41 µM | MCF7 38.5 µM | SW-620 38.2 µM

Cc1ccc(S(=O)(=O)n2cc(-c3cc(C(F)(F)F)ccn3)c3cc(Br)ccc32)cc1
inactive: KM12 38.9 µM | SK-MEL-2 3.07 µM | SR 54.6 µM | RXF 393 17.8 µM | MDA-N 45.2 µM | SF-268 27.4 µM | SK-OV-3 15.5 µM | EKVX 29.6 µM | HT-29 49.1 µM | OVCAR-3 12.2 µM | DU-145 17.9 µM | NCI-H226 19 µM | SK-MEL-5 24.3 µM | COLO 205 59.2 µM | SF-539 17.1 µM | U-251 15.5 µM | SF-295 17.9 µM | MCF7 5.26 µM | SW-620 74.6 µM
